Experimental data from US12295936B2, “Immunomodulating urea azalides” (Zoetis Services LLC, priority 2020, dated 2025).

Tested on: BRD pathogens, M. haemolytica and P. multocida
Test: MIC screening panel of BRD pathogens (antibacterial / non-antibacterial)
Settings: read-out: antibacterial / non-antibacterial (MIC for the BRD pathogens)

SMILES | MIC [µg/mL]
CC[C@H]1OC(=O)[C@H](C)[C@@H](O[C@H]2C[C@@](C)(OC)[C@](O)(CNCCS(C)(=O)=O)[C@H](C)O2)[C@H](C)[C@@H](O[C@@H]2O[C@H](C)C[C@H](N(C)C(=O)N(C)c3ccccc3)[C@H]2O)[C@](C)(O)C[C@@H](C)CN[C@H](C)[C@@H](O)[C@]1(C)O [Example H-21, 1-((2S,3R,4S,6R)-2-(((2R,3S,4R,5R,8R,10R,11R,12S,13S,14R)-2-ethyl-3,4,10-trihydroxy-13-(((2R,4R,5S,6S)-5-hydroxy-4-methoxy-4,6-dimethyl-5-(((2-(methylsulfonyl)ethyl)amino)methyl)tetrahydro-2H-pyran-2-yl)oxy)-3,5,8,10,12,14-hexamethyl-15-oxo-1-oxa-6-azacyclopentadecan-11-yl)oxy)-3-hydroxy-6-methyltetrahydro-2H-pyran-4-yl)-1,3-dimethyl-3-phenylurea] | > 64
CC[C@H]1OC(=O)[C@H](C)[C@@H](O[C@H]2C[C@@](C)(OC)[C@](O)(CNCCC3CC3)[C@H](C)O2)[C@H](C)[C@@H](O[C@@H]2O[C@H](C)C[C@H](N(C)C(=O)N(C)c3ccccc3)[C@H]2O)[C@](C)(O)C[C@@H](C)CN[C@H](C)[C@@H](O)[C@]1(C)O [Example H-34, 1-((2S,3R,4S,6R)-2-(((2R,3S,4R,5R,8R,10R,11R,12S,13S,14R)-13-(((2R,4R,5S,6S)-5-(((2-cyclopropylethyl)amino)methyl)-5-hydroxy-4-methoxy-4,6-dimethyltetrahydro-2H-pyran-2-yl)oxy)-2-ethyl-3,4,10-trihydroxy-3,5,8,10,12,14-hexamethyl-15-oxo-1-oxa-6-azacyclopentadecan-11-yl)oxy)-3-hydroxy-6-methyltetrahydro-2H-pyran-4-yl)-1,3-dimethyl-3-phenylurea] | > 64
CC[C@H]1OC(=O)[C@H](C)[C@@H](O[C@H]2C[C@@](C)(OC)[C@](O)(CNCCCN3CCCC3=O)[C@H](C)O2)[C@H](C)[C@@H](O[C@@H]2O[C@H](C)C[C@H](N(C)C(=O)N(C)c3ccccc3)[C@H]2O)[C@](C)(O)C[C@@H](C)CN[C@H](C)[C@@H](O)[C@]1(C)O [Example H-35, 1-((2S,3R,4S,6R)-2-(((2R,3S,4R,5R,8R,10R,11R,12S,13S,14R)-2-ethyl-3,4,10-trihydroxy-13-(((2R,4R,5S,6S)-5-hydroxy-4-methoxy-4,6-dimethyl-5-(((3-(2-oxopyrrolidin-1-yl)propyl)amino)methyl)tetrahydro-2H-pyran-2-yl)oxy)-3,5,8,10,12,14-hexamethyl-15-oxo-1-oxa-6-azacyclopentadecan-11-yl)oxy)-3-hydroxy-6-methyltetrahydro-2H-pyran-4-yl)-1,3-dimethyl-3-phenylurea] | > 64
CC[C@H]1OC(=O)[C@H](C)[C@@H](O[C@H]2C[C@@](C)(OC)[C@](O)(CNCC3CC3)[C@H](C)O2)[C@H](C)[C@@H](O[C@@H]2O[C@H](C)C[C@H](N(C)C(=O)N(C)c3ccccc3)[C@H]2O)[C@](C)(O)C[C@@H](C)CN[C@H](C)[C@@H](O)[C@]1(C)O [Example H-41, 1-((2S,3R,4S,6R)-2-(((2R,3S,4R,5R,8R,10R,11R,12S,13S,14R)-13-(((2R,4R,5S,6S)-5-(((cyclopropylmethyl)amino)methyl)-5-hydroxy-4-methoxy-4,6-dimethyltetrahydro-2H-pyran-2-yl)oxy)-2-ethyl-3,4,10-trihydroxy-3,5,8,10,12,14-hexamethyl-15-oxo-1-oxa-6-azacyclopentadecan-11-yl)oxy)-3-hydroxy-6-methyltetrahydro-2H-pyran-4-yl)-1,3-dimethyl-3-phenylurea] | > 64
CC[C@H]1OC(=O)[C@H](C)[C@@H](O[C@H]2C[C@@](C)(OC)[C@](O)(CNCCCn3ccccc3=O)[C@H](C)O2)[C@H](C)[C@@H](O[C@@H]2O[C@H](C)C[C@H](N(C)C(=O)N(C)c3ccccc3)[C@H]2O)[C@](C)(O)C[C@@H](C)CN[C@H](C)[C@@H](O)[C@]1(C)O [Example H-47, 1-((2S,3R,4S,6R)-2-(((2R,3S,4R,5R,8R,10R,11R,12S,13S,14R)-2-ethyl-3,4,10-trihydroxy-13-(((2R,4R,5S,6S)-5-hydroxy-4-methoxy-4,6-dimethyl-5-(((3-(2-oxopyridin-1(2H)-yl)propyl)amino)methyl)tetrahydro-2H-pyran-2-yl)oxy)-3,5,8,10,12,14-hexamethyl-15-oxo-1-oxa-6-azacyclopentadecan-11-yl)oxy)-3-hydroxy-6-methyltetrahydro-2H-pyran-4-yl)-1,3-dimethyl-3-phenylurea] | > 64
CCCNC[C@]1(O)[C@H](C)O[C@@H](O[C@H]2[C@H](C)[C@@H](O[C@@H]3O[C@H](C)C[C@H](N(C)C(=O)N(C)c4cccnn4)[C@H]3O)[C@](C)(O)C[C@@H](C)CN[C@H](C)[C@@H](O)[C@](C)(O)[C@@H](CC)OC(=O)[C@@H]2C)C[C@@]1(C)OC [Example H-48, 1-((2S,3R,4S,6R)-2-(((2R,3S,4R,5R,8R,10R,11R,12S,13S,14R)-2-ethyl-3,4,10-trihydroxy-13-(((2R,4R,5S,6S)-5-hydroxy-4-methoxy-4,6-dimethyl-5-((propylamino)methyl)tetrahydro-2H-pyran-2-yl)oxy)-3,5,8,10,12,14-hexamethyl-15-oxo-1-oxa-6-azacyclopentadecan-11-yl)oxy)-3-hydroxy-6-methyltetrahydro-2H-pyran-4-yl)-1,3-dimethyl-3-(pyridazin-3-yl)urea] | > 64
CCCNC[C@]1(O)[C@H](C)O[C@@H](O[C@H]2[C@H](C)[C@@H](O[C@@H]3O[C@H](C)C[C@H](N(C)C(=O)N(C)c4ncccn4)[C@H]3O)[C@](C)(O)C[C@@H](C)CN[C@H](C)[C@@H](O)[C@](C)(O)[C@@H](CC)OC(=O)[C@@H]2C)C[C@@]1(C)OC [Example H-49, 1-((2S,3R,4S,6R)-2-(((2R,3S,4R,5R,8R,10R,11R,12S,13S,14R)-2-ethyl-3,4,10-trihydroxy-13-(((2R,4R,5S,6S)-5-hydroxy-4-methoxy-4,6-dimethyl-5-((propylamino)methyl)tetrahydro-2H-pyran-2-yl)oxy)-3,5,8,10,12,14-hexamethyl-15-oxo-1-oxa-6-azacyclopentadecan-11-yl)oxy)-3-hydroxy-6-methyltetrahydro-2H-pyran-4-yl)-1,3-dimethyl-3-(pyrimidin-2-yl)urea] | > 64
CCCNC[C@]1(O)[C@H](C)O[C@@H](O[C@H]2[C@H](C)[C@@H](O[C@@H]3O[C@H](C)C[C@H](N(C)C(=O)N(C)c4ncc(C5CC5)cn4)[C@H]3O)[C@](C)(O)C[C@@H](C)CN[C@H](C)[C@@H](O)[C@](C)(O)[C@@H](CC)OC(=O)[C@@H]2C)C[C@@]1(C)OC [Example H-52, 1-(5-cyclopropylpyrimidin-2-yl)-3-((2S,3R,4S,6R)-2-(((2R,3S,4R,5R,8R,10R,11R,12S,13S,14R)-2-ethyl-3,4,10-trihydroxy-13-(((2R,4R,5S,6S)-5-hydroxy-4-methoxy-4,6-dimethyl-5-((propylamino)methyl)tetrahydro-2H-pyran-2-yl)oxy)-3,5,8,10,12,14-hexamethyl-15-oxo-1-oxa-6-azacyclopentadecan-11-yl)oxy)-3-hydroxy-6-methyltetrahydro-2H-pyran-4-yl)-1,3-dimethylurea] | > 64
CCCNC[C@]1(O)[C@H](C)O[C@@H](O[C@H]2[C@H](C)[C@@H](O[C@@H]3O[C@H](C)C[C@H](N(C)C(=O)N(C)c4cccnc4)[C@H]3O)[C@](C)(O)C[C@@H](C)CN[C@H](C)[C@@H](O)[C@](C)(O)[C@@H](CC)OC(=O)[C@@H]2C)C[C@@]1(C)OC [Example H-53, 1-((2S,3R,4S,6R)-2-(((2R,3S,4R,5R,8R,10R,11R,12S,13S,14R)-2-ethyl-3,4,10-trihydroxy-13-(((2R,4R,5S,6S)-5-hydroxy-4-methoxy-4,6-dimethyl-5-((propylamino)methyl)tetrahydro-2H-pyran-2-yl)oxy)-3,5,8,10,12,14-hexamethyl-15-oxo-1-oxa-6-azacyclopentadecan-11-yl)oxy)-3-hydroxy-6-methyltetrahydro-2H-pyran-4-yl)-1,3-dimethyl-3-(pyridin-3-yl)urea] | > 64
CCCNC[C@]1(O)[C@H](C)O[C@@H](O[C@H]2[C@H](C)[C@@H](O[C@@H]3O[C@H](C)C[C@H](N(C)C(=O)N(c4ccccc4)C4CCOCC4)[C@H]3O)[C@](C)(O)C[C@@H](C)CN[C@H](C)[C@@H](O)[C@](C)(O)[C@@H](CC)OC(=O)[C@@H]2C)C[C@@]1(C)OC [Example H-55, 1-((2S,3R,4S,6R)-2-(((2R,3S,4R,5R,8R,10R,11R,12S,13S,14R)-2-ethyl-3,4,10-trihydroxy-13-(((2R,4R,5S,6S)-5-hydroxy-4-methoxy-4,6-dimethyl-5-((propylamino)methyl)tetrahydro-2H-pyran-2-yl)oxy)-3,5,8,10,12,14-hexamethyl-15-oxo-1-oxa-6-azacyclopentadecan-11-yl)oxy)-3-hydroxy-6-methyltetrahydro-2H-pyran-4-yl)-1-methyl-3-phenyl-3-(tetrahydro-2H-pyran-4-yl)urea] | > 64
CCCNC[C@]1(O)[C@H](C)O[C@@H](O[C@H]2[C@H](C)[C@@H](O[C@@H]3O[C@H](C)C[C@H](N(C)C(=O)N(C)c4cc(C)nc(C)n4)[C@H]3O)[C@](C)(O)C[C@@H](C)CN[C@H](C)[C@@H](O)[C@](C)(O)[C@@H](CC)OC(=O)[C@@H]2C)C[C@@]1(C)OC [Example H-57, 1-(2,6-dimethylpyrimidin-4-yl)-3-((2S,3R,4S,6R)-2-(((2R,3S,4R,5R,8R,10R,11R,12S,13S,14R)-2-ethyl-3,4,10-trihydroxy-13-(((2R,4R,5S,6S)-5-hydroxy-4-methoxy-4,6-dimethyl-5-((propylamino)methyl)tetrahydro-2H-pyran-2-yl)oxy)-3,5,8,10,12,14-hexamethyl-15-oxo-1-oxa-6-azacyclopentadecan-11-yl)oxy)-3-hydroxy-6-methyltetrahydro-2H-pyran-4-yl)-1,3-dimethylurea] | > 64
